Tested on: Normal Human dermal fibroblasts
Experiment: Procollagen assay (Procollagen Type-I C-Peptide EIA) in conditioned media of treated fibroblasts
Type: cell-based
Details: 0.0005% compound, 48 hours, ELISA, p<0.05
Method: Normal Human dermal fibroblasts were grown in DMEM (Mediatech; cat. #: 15-013-CV) containing 10% Fetal Bovine Serum (Perbio; cat. #: SH30070.03), Penicillin/Streptomycin (Mediatech, Cat #30-001-C1), L-Glutamine (Mediatech; cat. #: 25-005-CI) at 37° C. and 10% CO2. Cells were stripped of serum overnight, followed by treatment with the compound of Formula I(b) (0.0005%) or vehicle (DMSO), in the absence of serum for 48 hours.
Reading was measured at 450 nm using a spectrophotometer.
Human dermal fibroblasts treated with 0.0005% the compound of Formula I(b) for 48 hours were analyzed by ELISA for expression levels of pro-collagen. […] All values are statistically significant at p<0.05.

## N#Cc1cccc(CN2CCNC(=O)CC2c2nccs2)c1 (centres unmarked) [Formula I(b)]
serum-free, relative to vehicle (DMSO) control = 100%, 450 nm
  Procollagen: 146%
  pro-collagen expression level relative to control, vehicle treated cells: significant increase

Source: patent publication US8865700B2, “Collagen stimulators and their use in the treatment of skin” (Avon Products, Inc., priority 2012, dated 2014)
